Experimental data from patent publication US20240132463A1, “SUBSTITUTED N-(2-(2,6-DIOXOPIPERIDIN-3-YL)-1,3-DIOXOISOINDOLIN-5-YL)ARYLSULFONAMIDE ANALOGS AS MODULATORS OF CEREBLON PROTEIN” (ST. JUDE CHILDREN'S RESEARCH HOSPITAL, INC., priority 2020, published 2024).
Read-outs that look alike come from different tables or passages of the source.

How the values were obtained:
GSPT1 = GSPT1 (Homo sapiens (Human), UniProt P15170+Q96SW2); assay: GSPT1 degradation by immunoblot in MV4-11 cells; assay type: cell-based
Sequence of GSPT1 (P15170 whole entry): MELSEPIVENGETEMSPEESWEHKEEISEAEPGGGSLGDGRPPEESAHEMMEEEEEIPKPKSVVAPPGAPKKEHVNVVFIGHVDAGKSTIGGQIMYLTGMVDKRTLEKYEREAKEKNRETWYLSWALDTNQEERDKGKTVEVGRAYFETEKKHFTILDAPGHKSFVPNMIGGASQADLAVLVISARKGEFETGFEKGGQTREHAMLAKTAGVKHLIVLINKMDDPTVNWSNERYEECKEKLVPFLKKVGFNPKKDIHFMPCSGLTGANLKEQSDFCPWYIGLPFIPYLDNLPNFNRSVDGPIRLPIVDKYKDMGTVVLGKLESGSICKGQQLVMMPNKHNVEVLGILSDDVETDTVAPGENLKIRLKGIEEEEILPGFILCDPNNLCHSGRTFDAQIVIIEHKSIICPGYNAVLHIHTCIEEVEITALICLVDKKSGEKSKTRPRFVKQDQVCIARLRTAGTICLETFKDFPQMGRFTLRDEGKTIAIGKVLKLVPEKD
Sequence of GSPT1 (Q96SW2 whole entry): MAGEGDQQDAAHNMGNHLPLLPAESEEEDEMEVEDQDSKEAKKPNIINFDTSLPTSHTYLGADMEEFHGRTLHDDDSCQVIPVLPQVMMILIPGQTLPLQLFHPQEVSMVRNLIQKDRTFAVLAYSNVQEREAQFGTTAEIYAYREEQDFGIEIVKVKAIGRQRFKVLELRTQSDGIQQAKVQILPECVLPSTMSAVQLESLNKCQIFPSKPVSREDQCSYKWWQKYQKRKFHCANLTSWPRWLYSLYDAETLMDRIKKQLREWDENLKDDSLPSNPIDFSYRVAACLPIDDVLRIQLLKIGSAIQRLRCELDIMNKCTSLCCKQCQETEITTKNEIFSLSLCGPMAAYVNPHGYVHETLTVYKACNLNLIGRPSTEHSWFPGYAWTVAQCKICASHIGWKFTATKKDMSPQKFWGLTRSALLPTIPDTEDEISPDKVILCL
Sequence of GSPT1 (Q16531 whole entry partner): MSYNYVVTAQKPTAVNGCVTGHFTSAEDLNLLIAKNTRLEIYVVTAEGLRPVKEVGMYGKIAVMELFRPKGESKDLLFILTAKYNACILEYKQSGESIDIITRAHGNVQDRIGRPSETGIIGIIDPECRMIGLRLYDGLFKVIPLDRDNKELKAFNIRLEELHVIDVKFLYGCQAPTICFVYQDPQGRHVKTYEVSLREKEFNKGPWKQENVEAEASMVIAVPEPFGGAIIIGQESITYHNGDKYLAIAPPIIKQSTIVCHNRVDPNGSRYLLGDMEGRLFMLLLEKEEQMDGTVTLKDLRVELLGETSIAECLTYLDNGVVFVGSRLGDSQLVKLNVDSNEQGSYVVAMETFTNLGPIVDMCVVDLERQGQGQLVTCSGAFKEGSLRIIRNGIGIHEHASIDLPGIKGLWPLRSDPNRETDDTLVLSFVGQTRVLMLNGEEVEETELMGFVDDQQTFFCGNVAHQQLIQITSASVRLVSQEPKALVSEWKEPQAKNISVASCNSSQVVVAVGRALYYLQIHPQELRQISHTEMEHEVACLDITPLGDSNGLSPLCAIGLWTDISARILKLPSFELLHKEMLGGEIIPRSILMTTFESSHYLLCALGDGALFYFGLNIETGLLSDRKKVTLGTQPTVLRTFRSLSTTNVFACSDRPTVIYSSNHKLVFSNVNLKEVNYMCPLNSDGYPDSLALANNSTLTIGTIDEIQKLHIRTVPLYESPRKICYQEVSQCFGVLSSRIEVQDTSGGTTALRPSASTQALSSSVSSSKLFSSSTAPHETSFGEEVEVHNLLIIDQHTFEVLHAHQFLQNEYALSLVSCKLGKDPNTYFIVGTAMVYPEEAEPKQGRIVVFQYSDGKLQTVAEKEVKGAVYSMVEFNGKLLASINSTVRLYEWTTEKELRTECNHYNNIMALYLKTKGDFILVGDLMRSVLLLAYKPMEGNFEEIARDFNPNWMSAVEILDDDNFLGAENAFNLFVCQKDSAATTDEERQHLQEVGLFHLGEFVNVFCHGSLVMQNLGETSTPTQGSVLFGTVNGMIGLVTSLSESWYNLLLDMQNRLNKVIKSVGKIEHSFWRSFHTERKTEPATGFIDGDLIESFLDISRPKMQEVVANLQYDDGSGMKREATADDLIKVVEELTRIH
Method: (§1) MV4-11 cells were seeded in 6-well plates (1×10^6 cells per well). After overnight incubation, the cells were treated with indicated concentrations for specific timepoints. […] After blocking the membrane with LI-COR TBS blocking buffer and incubation in primary antibody overnight, the corresponding protein signals were detected using IRDye secondary antibodies and Odyssey Imaging System. Image Studio Lite Ver 5.2 was used for blot quantification. […] IRDye® 800CW Goat anti-Mouse IgG Secondary Antibody and IRDye® 68ORD Goat anti-Rabbit IgG Secondary Antibody were used as secondary antibodies.

6×His-CRBN-DDB1 protein = 6×His-CRBN-DDB1 protein (Homo sapiens (Human), UniProt Q96SW2); assay: CRBN fluorescence polarization assay; assay type: binding
Sequence of 6×His-CRBN-DDB1 protein (Q96SW2 whole entry): as the sequence (Q96SW2 whole entry) above
Sequence of 6×His-CRBN-DDB1 protein (Q16531 whole entry partner): as the sequence (Q16531 whole entry partner) above
Method: 6×His-CRBN-DDB1 protein (200 nM) and Cy5-O-Len probe (30 nM) were combined in 20 mM HEPES pH 7, 150 mM NaCl, 0.005% Tween-20 assay buffer. […] The plates were incubated in the dark for 1 hour at room temperature and then read on an Envision plate reader (PerkinElmer, Massachusetts, USA).

IKZF1 = IKZF1 (Homo sapiens (Human), UniProt Q13422+Q96SW2); assay: IKZF1 degradation by immunoblot in MV4-11 cells; assay type: cell-based
Method: as §1

MDCKII-MDR1 cells = assay: MDCKII-MDR1 permeability assay; assay type: in vitro ADME; conditions: permeability in MDCK-MDR1 cells
Method: High throughput […]1 permeability was performed in the Transwell® 0.4 μm polycarbonate membrane 96-well system with modified methods (Refs. 38-39). […]1 cells were maintained at 37° C. in a humidified incubator with an atmosphere of 5% CO2. The cells were cultured in 75 cm^2 flasks with Dulbecco's Modified Eagle's Medium (DMEM) containing 10% fetal bovine serum (FBS), 1% non-essential amino acids (NEAA), 100 units/ml of penicillin, and 100 μg/ml of streptomycin. The […]1 cells were seeded onto inserts at a density of 2×10^4 and 1×10^4 cells/insert separately. The medium in the wells was exchanged each other day, and the trans epithelial electrical resistance (TEER) value was measured using an epithelial volt-ohm meter (Millipore, Billerica, Massachusetts). […] For transport experiments, each cultured monolayer on the 96-well plate was washed twice with a transport buffer (HBSS/25 mM HEPES, pH 7.4). The permeability assay was initiated by the addition of each compound solution (10 μmol/L) into inserts (apical side, A) or receivers (basolateral side, B). The MDCKII-MDR1 cell monolayers were incubated for 1 hour at 37° C. Fractions were collected from receivers (if apical to basal permeability) or inserts (if basal to apical permeability), and concentrations were assessed by UPLC/MS (Waters; Milford, MA). All compounds were tested in triplicates. The A→B (or B→A) apparent permeability coefficients (Papp) of each compound were calculated using the equation, Papp=dQ/dt×1/AC0, where dQ/dt equals the flux of a drug across the monolayer, A equals the total insert well surface area, and C0 is the initial concentration of substrate in the donor compartment. The efflux ratio was determined by dividing the Papp in the B-A direction by the Papp in the A-B direction.

MV4-11 cells [1] = assay: MV-4-11 cell viability assay; assay type: cell-based, human; conditions: 72 hours, Cell Titer Glo
Method: (§2) MV-4-11 cell line was purchased from the American Type Culture Collection (ATCC, Manassas, VA). The cells were cultured according to recommendations in IMDM cell culture media (ATCC). Exponentially growing MV-4-11 cells were plated at 1,000 cells per well in Corning 8804BC white 384-well assay plates and incubated overnight at 37° C. in a humidified 5% CO2 incubator. Compounds were transferred to the assay plate from a dose-response plate using a Pintool on a Biomek FXP Laboratory Automation Workstation (Beckman Coulter). Cytotoxicity was determined following 72 hours of incubation using Promega Cell Titer Glo reagent according to the manufacturer's recommendation. Luminescence was measured on an Envision plate reader (Perkin-Elmer).
(§3) Compounds were screened in human cancer cell lines and each cell line was cultured in the complete medium recommended by the vendor and seeded in Corning 8804BC white 384-well assay plates at density of 1,000, 1,000, 1,000, 1,500 and 7,500 cells per well, for MV4-11, HD-MB03, MB004, MB002 and MHH-CALL4 cells respectively. After overnight incubation at 37° C. in a humidified 5% CO2 incubator, cells were treated with compounds in dose-response format using a Pintool on a Biomek FXP Laboratory Automation Workstation (Beckman Coulter). […] After 72 h incubation, cell proliferation was assessed using Cell Titer-Glo (CTG) luminescent cell viability assay (Promega) according to the manufacturer's instruction. Luminescence signal was measured using an Envision plate reader (Perkin-Elmer).

Aqueous solubility assay = assay type: physicochemical; conditions: aqueous solubility at pH = 7.4, triplicate
Method: Solubility assays were carried out on a Biomek FX lab automation workstation (Beckman Coulter, Inc., Fullerton, CA) using μSOL Evolution software (pION Inc., Woburn, MA). 10 μL of 10 mM compound stock (in DMSO) was added to 190 μL 1-propanol to make a reference stock plate. 5 μL from this reference stock plate were mixed with 70 μL 1-propanol and 75 μL citrate phosphate-buffered saline (PBS;isotonic) to make the reference plate, and the UV spectrum (250-500 nm) of the reference plate was read. 6 μL of 10 mM test compound stock was added to 594 μL buffer in a 96-well storage plate and mixed. The storage plate was sealed and incubated at RT for 18 h. The suspension was then filtered through a 96-well filter plate (pION Inc., Woburn, MA). 75 μL of filtrate was mixed with 75 μL 1-propanol to make the sample plate, and the UV spectrum of the sample plate was read. Calculations were carried out with μSOL Evolution software based on the area under the curve (AUC) of the UV spectrum of the sample and reference plates. All compounds were tested in triplicate.

GSPT1 HiBiT tag protein = GSPT1 HiBiT tag protein (Homo sapiens (Human), UniProt P15170+Q96SW2); assay: hGSPT1 HiBiT assay; assay type: cell-based; conditions: read-out: GSPT1 HiBit EC50; HEK293 hGSPT1 HiBiT cells, 4 hrs incubation
Sequence of GSPT1 HiBiT tag protein (P15170 whole entry): as the sequence (P15170 whole entry) above
Sequence of GSPT1 HiBiT tag protein (Q96SW2 whole entry): as the sequence (Q96SW2 whole entry) above
Sequence of GSPT1 HiBiT tag protein (Q16531 whole entry partner): as the sequence (Q16531 whole entry partner) above
Method: hGSPT1 HiBiT cell line. HEK293_hGSPT1_HiBiT tagged cells were generated using CRISPR-Cas12a technology. Briefly, ˜400,000 HEK293 cells were transiently co-transfecting with precomplexed ribonuclear proteins (RNPs) consisting of […] of crRNA (IDT), 62 pmol of Cas12a protein (IDT), 3 ug of ssODN donor (IDT; AltR™ modifications), 78 pmol of electroporation enhancer (IDT), and 200 ng of pMaxGFP (Lonza). The transfection was performed via nucleofection (Lonza, 4D-Nucleofector™ X-unit) using solution P3 and program CM-130 in a small (20 ul) cuvette according to the manufacturer's recommended protocol. Five days post-nucleofection, cells were single cell sorted for GFP+(transfected) cells by FACs in 96-well plates and clonally selected. Clones were screened and verified for the desired modification via targeted deep sequencing using gene specific primers with partial Illumina adapter overhangs as previously described.^58 In brief, clonal cell pellets were harvested, lysed and used to generate gene specific amplicons with partial Illumina adapters in PCR #1. Amplicons were indexed in PCR #2 and pooled with other targeted amplicons for other loci to create sequence diversity. Additionally, 10% PhiX Sequencing Control V3 (Illumina) was added to the pooled amplicon library prior to running the sample on an Miseq Sequencer System (Illumina) to generate paired 2×250 bp reads. […] Editing construct sequences and screening primers are listed below in Table 4.
hGSPT1 HiBiT assay. […] After 4 hrs incubation, the level of GSPT1 HiBiT tag protein was evaluated using Nano-Glo® HiBiT Lytic Detection System (Promega) according to the manufacturer's instruction.

human cancer cell lines = assay: Cell proliferation in human cancer cell lines; assay type: cell-based; conditions: data not shown
cells = conditions: Ref. 13; cited from earlier work
[2] = tested on: CRBN knockout MV4-11 cells; assay: Cell viability in CRBN knockout MV4-11 cells; assay type: cell-based, human; conditions: CRBN knockout vs wild-type MV4-11 cells
Method: as §2
CRBN-deficient MV4:11 cells were generated using CRISPR-Cas9 technology. […] Five days post nucleofection, cells were single-cell sorted by FACs to enrich for GFP+(transfected) cells, clonally selected, and verified for the desired targeted modification via targeted deep sequencing using gene specific primers with partial Illumina adapter overhangs (hCRBN.F—5′-[sequence]-3′ (SEQID: 6) and hCRBN.R—5′-[sequence]-3′, (SEQID: 7); overhangs not shown) and analyzed using CRIS.py (Ref. 36).

caspase 3/7 = assay: Caspase 3/7 activity assay; assay type: cell-based, human; conditions: MV4-11 cells, Caspase-Glo, 4, 8 and 24 hours, 10 and 100 nM
MV4-11 cells [3] = assay: Lenalidomide competition assay; assay type: cell-based, human; conditions: co-treatment with lenalidomide 10 μM, 72 h
Method: as §3

## O=C1CCC(N2C(=O)c3ccc(NS(=O)(=O)c4cccc(OC(F)(F)F)c4)cc3C2=O)C(=O)N1 (centres unmarked) [Compound 2, N-(2-(2,6-dioxopiperidin-3-yl)-1,3-dioxoisoindolin-5-yl)-3-(trifluoromethoxy)benzenesulfonamide]
GSPT1; MV4-11 cells (FIG. 6)
  effect on protein levels of GSPT1 by immunoblotting: no effects
GSPT1; MV4-11 cells, DC50 values at 24 hours
  selectivity window GSPT1 over IKZF1 (DC50): 30 fold
6×His-CRBN-DDB1 protein; CRBN FP IC50, cereblon binding, class symbols
  IC50: < 1 µM
6×His-CRBN-DDB1 protein; CRBN IC50, fluorescence polarization, Cy5-O-Len probe
  IC50: 0.072 µM
6×His-CRBN-DDB1 protein; fluorescence polarization, Cy5-O-Len probe, read-out: CRBN IC50
  IC50: 0.054 µM
IKZF1; MV4-11 cells (FIG. 6)
  effect on protein levels of IKZF1 by immunoblotting: no effects
IKZF1; MV4-11 cells, treatment over 24 hours
  IKZF1 protein abundance: dose-dependent decrease
MDCKII-MDR1 cells
  Papp: 4 ×10⁻⁶ cm/s
MV4-11 cells [1]
  MV4-11 EC50: no activity
Aqueous solubility assay
  Sol.: 64 µM
GSPT1 HiBiT tag protein
  DC50: > 10 µM

## Cc1ccc(NC(=O)NCc2ccc3c(c2)CN(C2CCC(=O)NC2=O)C3=O)cc1Cl (centres unmarked) [CC-885, N-(3-chloro-4-methylphenyl)-N′-[[2-(2,6-dioxo-3-piperidinyl)-2,3-dihydro-1-oxo-1H-isoindol-5-yl]methyl]-urea]
Human cancer cell lines
  antiproliferative effects in cell lines: displayed antiproliferative effects in all four cell lines

## O=C1CC[C@H](N2Cc3c(OCc4ccc(CN5CCOCC5)cc4)cccc3C2=O)C(=O)N1 [CC-220, (S)-3-(4-((4-(morpholinomethyl)benzyl)oxy)-1-oxoisoindolin-2-yl)piperidine-2,6-dione]
cells
  potency in cells relative to lenalidomide: 10 fold

## Cc1c(Cl)cccc1S(=O)(=O)Nc1ccc2c(c1)C(=O)N(C1CCC(=O)NC1=O)C2=O (centres unmarked) [Compound 5, 3-chloro-N-(2-(2,6-dioxopiperidin-3-yl)-1,3-dioxoisoindolin-5-yl)-2-methylbenzenesulfonamide]
GSPT1; MV4-11 cells, 24 hours, at 100 nM
  GSPT1 protein degradation: 90%
[2]
  antiproliferative activity in absence of CRBN: abolished
Caspase 3/7
  caspase activation: only observed at the 24 hour time point
IKZF1; MV4-11 cells, 4 hours, any concentration tested
  IKZF1 degradation at 4 hours: did not significantly degrade IKZF1
MDCKII-MDR1 cells
  Papp: 3.6 ×10⁻⁶ cm/s
MV4-11 cells [3]
  antiproliferative effect in presence of lenalidomide: abrogating the antiproliferative effects
Aqueous solubility assay
  Sol.: 64 µM
